Results on two compounds are retold here after patent US8906432B2, “Compositions comprising an NFκB-inhibitor and a non-retinoid collagen promoter” (Johnson & Johnson Consumer Companies, Inc., priority 2009, dated 2014).

The inhibition is the share of the control response that was lost under treatment.

The test system of assay [1] is NFκB. The experiment in a line: NFκB-INHIBITION TEST (NF-kB gene reporter, TNFα-stimulated FB293 cells, luciferase). The class given is cell-based. The note with it: Homo sapiens, 24 h; series of substituted resorcinols, each 10 ug/ml (Table 2); read-out: Percent NF-kB Inhibition. The method, then:
The NFκB-INHIBITION TEST is conducted in the following manner. FB293 cells, a stable transfected human epithelial cell line containing the gene reporter for NF-kB are used. They may be obtained from, e.g., Panomics (Fremont, Calif.). FB293 are plated at a density of 5×10^4 cells/mL in a suitable medium, e.g., Dulbecco's modified Eagle's medium (DMEM) supplemented with 10% fetal bovine serum (Invitrogen, San Diego, Calif.). The FB293 cells are stimulated with 100 ng/mL of Tumor Necrosis Factor-α(TNFα, available from Sigma-Aldrich of St Louis, Mo.) in the presence of the test sample. Separately, a control sample is tested wherein no test sample is applied. Following a 24-hour incubation at 37° C. with 5% CO2, cells are lysed with 40 μl of reporter lysis buffer (Promega, Madison, Wis.). A […] aliquot of the lysate is assayed using a luciferase assay kit (Promega) and counted for 10 s in a Lmax luminometer (Molecular Devices, Sunnyvale, Calif.) with the data represented as the relative light unit/second. Percent NFκB Inhibition of the test sample is calculated as: NFκB Inhibition=[1−(Lsample/Lcontrol)]*100 where Lsample is the luminescence of the sample and Lcontrol is the luminescence of the control. […]

Assay [2] has as its system Collagen 1A promoter. The experiment in a line: COLLAGEN PROMOTER ASSAY (Collagen 1A promoter-luciferase reporter in H9C2 cells). The class given is cell-based, rat. The following applies: 1 ug/ml of each active (on active basis), transfected H9C2 cells, 24 hours; for Percent Change Over Vehicle (collagen promotion): vehicle DMSO 0.01%. The method, then:
Suitable non-retinoid collagen promoters may be determined, for example, using the COLLAGEN PROMOTER ASSAY. The COLLAGEN PROMOTER ASSAY is performed as follows. Rat cardiac myoblasts H9C2, which may be purchased from ATCC (Manassas, Va.), are used. Cultures are maintained in Dulbecco's modified Eagle's medium (DMEM, Invitrogen Life Technologies, Carlsbad, Calif.) supplemented with 10% fetal bovine serum, 2 mM glutamine, 100 units/ml penicillin, and 50 ug/ml streptomycin (Invitrogen life technologies, Carlsbad, Calif.). Cell cultures are transiently transfected with the Collagen 1A promoter-luciferase reporter construct, driving the firefly luciferase gene, which may obtained for example from PREMAS Biotech Pvt. Ltd (Haryana, India). In all transfections, a construct with the thymidine kinase promoter and the Renilla luciferase reporter gene (pRL-TK, Promega, Madison, Wis.) is included as an internal control. Cells grown in 48-well plates are transfected with 0.45 ug total DNA per well using Lipofectamine 2000 (Invitrogen life technologies, Carlsbad, Calif.). One day after transfection, cells are treated with agents at the indicated concentrations for approximately 24 hours before they are lysed for luciferase assays, using Dual-Luciferase Reporter System from Promega (Madison, Wis.), following manufacturer's protocol. The firefly luciferase activity is measured first (representing collagen promoter activity), followed by the renilla luciferase (internal control), using luminometer LMAX, from Molecular Devices (Sunnyvale, Calif.). The ratio of these two luciferase activities (RLU) is used to evaluate the activity of each promoter.
The COLLAGEN PROMOTER ASSAY was performed on the following compounds: Tanacetum parthenium (parthenolide-free feverfew extract from Integrated Botanical Technologies of Ossining, N.Y.) and 4-hexylresorcinol (Synovea HR, from Sytheon Ltd). The compounds were diluted in cell culture media (DMEM Media of Invitrogen, San Diego Calif.) to the concentration of “active” extract as indicated in Table 3 below. […]
A general note: A reporter such as luciferase makes a cellular process visible.

With `CCCCCCCCCCCC1c2cc(c(O)cc2O)C(CCCCCCCCCCC)c2cc(c(O)cc2O)[C@H](CCCCCCCCCCC)c2cc(c(O)cc2O)[C@H](CCCCCCCCCCC)c2cc1c(O)cc2O` (stereo partly shown) [C-Undecylcalix[4]-resorcinarene], the inhibition at 10 µg/mL in assay [1] is 4.87%.
As for `CCCCCCc1ccc(O)cc1O` [4-Hexylresorcinol], the “Percent Change Over Vehicle (collagen promotion)” value in assay [2] and in assay [2] (listed as 4-hexylresorcinol) was −3% throughout. Also, the “Collagen 1A Promoter Activity” value in assay [2] (vehicle control = 1.00) is recorded as 0.97 ± 0.17.
